Source: patent publication US9302999B2, “Substituted triazoles as herbicides” (E. I. DU PONT DE NEMOURS AND COMPANY, priority 2012, dated 2016)

Assays:
Type in all cases: in vivo
Conditions in all cases: Preemergence, scale 0 to 100
[1] = tested on: dayflower, (VA) (Virginia dayflower, Commelina virginica); experiment: Test E pre-/postemergence: dayflower, (VA)
From the text: (§1) Seeds of plant species selected from corn (Zea mays), soybean (Glycine max), velvetleaf (Abutilon theophrasti), lambsquarters (Chenopodium album), poinsettia, wild (wild poinsettia, Euphorbia heterophylla), pigweed, palmer (palmer pigweed, Amaranthus palmeri), waterhemp (common waterhemp, Amaranthus rudis), smartweed (ladysthumb smartweed, Polygonum persicaria), surinam grass (Brachiaria decumbens), crabgrass, large (large crabgrass, Digitaria sanguinalis), crabgrass, Brazil (Brazilian crabgrass, Digitaria horizontalis), panicum, fall (fall panicum, Panicum dichotomiflorum), foxtail, giant (giant foxtail, Setaria faberii), foxtail, green (green foxtail, Setaria viridis), goosegrass (Eleusine indica), johnsongrass (Sorghum halepense), ragweed (common ragweed, Ambrosia elation), barnyardgrass (Echinochloa crus-galli), sandbur (southern sandbur, Cenchrus echinatus), arrowleaf sida (Sida rhombifolia), ryegrass, Italian (Italian ryegrass, Lolium multiflorum), dayflower, (VA) (Virginia dayflower, Commelina virginica), field bindweed (Convolvulus arvensis), cocklebur (common cocklebur, Xanthium strumarium), morningglory (Ipomoea coccinea), nightshade (eastern black nightshade, Solanum ptycanthum), kochia (Kochia scoparia), nutsedge, yellow (yellow nutsedge, Cyperus esculentus) and beggarticks (hairy beggarticks, Bidens pilosa) were planted into a silt loam soil and treated preemergence with test chemicals formulated in a non-phytotoxic solvent mixture which included a surfactant. At the same time, plants selected from these crop and weed species were planted in pots containing a growing medium comprising spaghnum peat moss, vermiculite, wetting agent and starter nutrients and treated with postemergence applications of some of the test chemicals formulated in the same manner. Plants ranged in height from 2 to 18 cm for postemergence treatments (1- to 4-leaf stage).
(§2) Treated plants and controls were maintained in a greenhouse for 14 to 21 days, after which time all species were compared to controls and visually evaluated. Plant response ratings, summarized in Table E, are based on a scale of 0 to 100 where 0 is no effect and 100 is complete control. A dash (-) response means no test result.

kochia (Kochia scoparia) = experiment: Test E pre-/postemergence: kochia
From the text: as §1, §2

[2] = tested on: ragweed (common ragweed, Ambrosia elation); experiment: Test E pre-/postemergence: ragweed
From the text: as §1, §2

[3] = tested on: arrowleaf sida (Sida rhombifolia); experiment: Test E pre-/postemergence: arrowleaf sida
From the text: as §1, §2

[4] = tested on: foxtail, green (green foxtail, Setaria viridis); experiment: Test E pre-/postemergence: foxtail, green
From the text: as §1, §2

[5] = tested on: lambsquarters (Chenopodium album); experiment: Test E pre-/postemergence: lambsquarters
From the text: as §1, §2

[6] = tested on: crabgrass, large (large crabgrass, Digitaria sanguinalis); experiment: Test E pre-/postemergence: crabgrass, large
From the text: as §1, §2

[7] = tested on: foxtail, giant (giant foxtail, Setaria faberii); experiment: Test E pre-/postemergence: foxtail, giant
From the text: as §1, §2

[8] = tested on: ryegrass, Italian (Italian ryegrass, Lolium multiflorum); experiment: Test E pre-/postemergence: ryegrass, Italian
From the text: as §1, §2

[9] = tested on: crabgrass, Brazil (Brazilian crabgrass, Digitaria horizontalis); experiment: Test E pre-/postemergence: crabgrass, Brazil
From the text: as §1, §2

[10] = tested on: pigweed, palmer (palmer pigweed, Amaranthus palmeri); experiment: Test E pre-/postemergence: pigweed, palmer
From the text: as §1, §2

## FC(F)(F)COc1nn(-c2ccc(C(F)(F)F)cc2)nc1Cc1ccnc(C(F)(F)F)c1 [Compound 14, 4-[[5-(2,2,2-trifluoroethoxy)-2-[4-(trifluoromethyl)phenyl]-2H-1,2,3-triazol-4-yl]methyl]-2-(trifluoromethyl)pyridine]
[1]; 16 g ai/ha
  Plant response rating: Dayflower, VA: 10
[1]; 31 g ai/ha
  Plant response rating: Dayflower, VA: 50
[1]; 62 g ai/ha
  Plant response rating: Dayflower, VA: 60
[1]; 125 g ai/ha
  Plant response rating: Dayflower, VA: 70
[1]; 250 g ai/ha
  Plant response rating: Dayflower, VA: 75
Kochia (Kochia scoparia); 16 g ai/ha
  Plant response rating: Kochia: 20
Kochia (Kochia scoparia); 31 g ai/ha
  Plant response rating: Kochia: 50
Kochia (Kochia scoparia); 62 g ai/ha
  Plant response rating: Kochia: 90
Kochia (Kochia scoparia); 125 g ai/ha
  Plant response rating: Kochia: 98
Kochia (Kochia scoparia); 250 g ai/ha
  Plant response rating: Kochia: 100
[2]; 16 g ai/ha
  Plant response rating: Ragweed: 0
[2]; 31 g ai/ha
  Plant response rating: Ragweed: 20
[2]; 62 g ai/ha
  Plant response rating: Ragweed: 35
[2]; 125 g ai/ha
  Plant response rating: Ragweed: 80
[2]; 250 g ai/ha
  Plant response rating: Ragweed: 90
[3]; 16 g ai/ha
  Plant response rating: Arrowleaf Sida: 10
[3]; 31 g ai/ha
  Plant response rating: Arrowleaf Sida: 30
[3]; 62 g ai/ha
  Plant response rating: Arrowleaf Sida: 30
[3]; 125 g ai/ha
  Plant response rating: Arrowleaf Sida: 65
[3]; 250 g ai/ha
  Plant response rating: Arrowleaf Sida: 80
[4]; 16 g ai/ha
  Plant response rating: Foxtail, Green: 25
[4]; 31 g ai/ha
  Plant response rating: Foxtail, Green: 35
[4]; 62 g ai/ha
  Plant response rating: Foxtail, Green: 50
[4]; 125 g ai/ha
  Plant response rating: Foxtail, Green: 70
[4]; 250 g ai/ha
  Plant response rating: Foxtail, Green: 100
[5]; 16 g ai/ha
  Plant response rating: Lambsquarters: 80
[5]; 31 g ai/ha
  Plant response rating: Lambsquarters: 98
[5]; 62 g ai/ha
  Plant response rating: Lambsquarters: 98
[5]; 125 g ai/ha
  Plant response rating: Lambsquarters: 98
[5]; 250 g ai/ha
  Plant response rating: Lambsquarters: 98
[6]; 16 g ai/ha
  Plant response rating: Crabgrass, Large: 65
[6]; 31 g ai/ha
  Plant response rating: Crabgrass, Large: 75
[6]; 62 g ai/ha
  Plant response rating: Crabgrass, Large: 95
[6]; 125 g ai/ha
  Plant response rating: Crabgrass, Large: 100
[6]; 250 g ai/ha
  Plant response rating: Crabgrass, Large: 100
[7]; 16 g ai/ha
  Plant response rating: Foxtail, Giant: 50
[7]; 31 g ai/ha
  Plant response rating: Foxtail, Giant: 75
[7]; 62 g ai/ha
  Plant response rating: Foxtail, Giant: 98
[7]; 125 g ai/ha
  Plant response rating: Foxtail, Giant: 100
[7]; 250 g ai/ha
  Plant response rating: Foxtail, Giant: 100
[8]; 16 g ai/ha
  Plant response rating: Ryegrass, Italian: 0
[8]; 31 g ai/ha
  Plant response rating: Ryegrass, Italian: 40
[8]; 62 g ai/ha
  Plant response rating: Ryegrass, Italian: 85
[8]; 125 g ai/ha
  Plant response rating: Ryegrass, Italian: 95
[8]; 250 g ai/ha
  Plant response rating: Ryegrass, Italian: 100
[9]; 16 g ai/ha
  Plant response rating: Crabgrass, Brazil: 60
[9]; 31 g ai/ha
  Plant response rating: Crabgrass, Brazil: 75
[9]; 62 g ai/ha
  Plant response rating: Crabgrass, Brazil: 100
[9]; 125 g ai/ha
  Plant response rating: Crabgrass, Brazil: 100
[9]; 250 g ai/ha
  Plant response rating: Crabgrass, Brazil: 100
[10]; 16 g ai/ha
  Plant response rating: Pigweed, Palmer: 75
[10]; 31 g ai/ha
  Plant response rating: Pigweed, Palmer: 100
[10]; 62 g ai/ha
  Plant response rating: Pigweed, Palmer: 100
[10]; 125 g ai/ha
  Plant response rating: Pigweed, Palmer: 100
[10]; 250 g ai/ha
  Plant response rating: Pigweed, Palmer: 100

## COc1nn(-c2ccc(C(F)(F)F)cc2)nc1Cc1ccnc(C(F)(F)F)c1 [Compound 15, 4-[[5-methoxy-2-[4-(trifluoromethyl)phenyl]-2H-1,2,3-triazol-4-yl]methyl]-2-(trifluoromethyl)pyridine]
[1]; 16 g ai/ha
  Plant response rating: Dayflower, VA: 5
[1]; 31 g ai/ha
  Plant response rating: Dayflower, VA: 10
[1]; 62 g ai/ha
  Plant response rating: Dayflower, VA: 25
[1]; 125 g ai/ha
  Plant response rating: Dayflower, VA: 60
[1]; 250 g ai/ha
  Plant response rating: Dayflower, VA: 95
Kochia (Kochia scoparia); 16 g ai/ha
  Plant response rating: Kochia: 35
Kochia (Kochia scoparia); 31 g ai/ha
  Plant response rating: Kochia: 65
Kochia (Kochia scoparia); 62 g ai/ha
  Plant response rating: Kochia: 90
Kochia (Kochia scoparia); 125 g ai/ha
  Plant response rating: Kochia: 100
Kochia (Kochia scoparia); 250 g ai/ha
  Plant response rating: Kochia: 100
[2]; 16 g ai/ha
  Plant response rating: Ragweed: 0
[2]; 31 g ai/ha
  Plant response rating: Ragweed: 5
[2]; 125 g ai/ha
  Plant response rating: Ragweed: 30
[2]; 250 g ai/ha
  Plant response rating: Ragweed: 60
[3]; 31 g ai/ha
  Plant response rating: Arrowleaf Sida: 30
[3]; 62 g ai/ha
  Plant response rating: Arrowleaf Sida: 40
[3]; 125 g ai/ha
  Plant response rating: Arrowleaf Sida: 50
[3]; 250 g ai/ha
  Plant response rating: Arrowleaf Sida: 60
[4]; 16 g ai/ha
  Plant response rating: Foxtail, Green: 20
[4]; 62 g ai/ha
  Plant response rating: Foxtail, Green: 90
[4]; 125 g ai/ha
  Plant response rating: Foxtail, Green: 100
[4]; 250 g ai/ha
  Plant response rating: Foxtail, Green: 100
[5]; 16 g ai/ha
  Plant response rating: Lambsquarters: 90
[5]; 31 g ai/ha
  Plant response rating: Lambsquarters: 100
[5]; 62 g ai/ha
  Plant response rating: Lambsquarters: 100
[5]; 125 g ai/ha
  Plant response rating: Lambsquarters: 100
[5]; 250 g ai/ha
  Plant response rating: Lambsquarters: 100
[6]; 16 g ai/ha
  Plant response rating: Crabgrass, Large: 15
[6]; 31 g ai/ha
  Plant response rating: Crabgrass, Large: 90
[6]; 62 g ai/ha
  Plant response rating: Crabgrass, Large: 100
[6]; 125 g ai/ha
  Plant response rating: Crabgrass, Large: 100
[6]; 250 g ai/ha
  Plant response rating: Crabgrass, Large: 100
[7]; 16 g ai/ha
  Plant response rating: Foxtail, Giant: 65
[7]; 31 g ai/ha
  Plant response rating: Foxtail, Giant: 98
[7]; 62 g ai/ha
  Plant response rating: Foxtail, Giant: 100
[7]; 125 g ai/ha
  Plant response rating: Foxtail, Giant: 100
[7]; 250 g ai/ha
  Plant response rating: Foxtail, Giant: 100
[8]; 16 g ai/ha
  Plant response rating: Ryegrass, Italian: 20
[8]; 31 g ai/ha
  Plant response rating: Ryegrass, Italian: 75
[8]; 62 g ai/ha
  Plant response rating: Ryegrass, Italian: 80
[8]; 125 g ai/ha
  Plant response rating: Ryegrass, Italian: 100
[8]; 250 g ai/ha
  Plant response rating: Ryegrass, Italian: 100
[9]; 16 g ai/ha
  Plant response rating: Crabgrass, Brazil: 60
[9]; 31 g ai/ha
  Plant response rating: Crabgrass, Brazil: 98
[9]; 62 g ai/ha
  Plant response rating: Crabgrass, Brazil: 100
[9]; 125 g ai/ha
  Plant response rating: Crabgrass, Brazil: 100
[9]; 250 g ai/ha
  Plant response rating: Crabgrass, Brazil: 100
[10]; 16 g ai/ha
  Plant response rating: Pigweed, Palmer: 100
[10]; 31 g ai/ha
  Plant response rating: Pigweed, Palmer: 100
[10]; 62 g ai/ha
  Plant response rating: Pigweed, Palmer: 100
[10]; 125 g ai/ha
  Plant response rating: Pigweed, Palmer: 100
[10]; 250 g ai/ha
  Plant response rating: Pigweed, Palmer: 100
